Test results: US4719231A, “3-[N-(mercaptoacyl)]amino-4-arylbutanoic acid derivatives and an analgesic agent comprising the same” (Zaidan Hojin Biseibutsu Kagaku Kenkyu Kai, priority 1984, dated 1988)
Where “and” joins values, the source holds several entries; their conditions need not be identical. Equal values may be shown once. One block for each compound: values may come before it.

Assays:
[1] = biological target: T1, enkephalinase (Rattus norvegicus, UniProt P07861); assay: Inhibitory activity against enkephalinase; assay type: biochemical; conditions: enkephalinase from corpus striatum of rat brain; substrate methionine-enkephaline; pH 7.7; 1 hour at 37° C.
T1 construct: A preparation of enkephalinase was made by homogenizing corpus striatum of rat brain and by partial purification of the brain homogenate; from tissue; host or cells: rat brain corpus striatum, homogenized and partially purified
T1 sequence (P07861 1-750): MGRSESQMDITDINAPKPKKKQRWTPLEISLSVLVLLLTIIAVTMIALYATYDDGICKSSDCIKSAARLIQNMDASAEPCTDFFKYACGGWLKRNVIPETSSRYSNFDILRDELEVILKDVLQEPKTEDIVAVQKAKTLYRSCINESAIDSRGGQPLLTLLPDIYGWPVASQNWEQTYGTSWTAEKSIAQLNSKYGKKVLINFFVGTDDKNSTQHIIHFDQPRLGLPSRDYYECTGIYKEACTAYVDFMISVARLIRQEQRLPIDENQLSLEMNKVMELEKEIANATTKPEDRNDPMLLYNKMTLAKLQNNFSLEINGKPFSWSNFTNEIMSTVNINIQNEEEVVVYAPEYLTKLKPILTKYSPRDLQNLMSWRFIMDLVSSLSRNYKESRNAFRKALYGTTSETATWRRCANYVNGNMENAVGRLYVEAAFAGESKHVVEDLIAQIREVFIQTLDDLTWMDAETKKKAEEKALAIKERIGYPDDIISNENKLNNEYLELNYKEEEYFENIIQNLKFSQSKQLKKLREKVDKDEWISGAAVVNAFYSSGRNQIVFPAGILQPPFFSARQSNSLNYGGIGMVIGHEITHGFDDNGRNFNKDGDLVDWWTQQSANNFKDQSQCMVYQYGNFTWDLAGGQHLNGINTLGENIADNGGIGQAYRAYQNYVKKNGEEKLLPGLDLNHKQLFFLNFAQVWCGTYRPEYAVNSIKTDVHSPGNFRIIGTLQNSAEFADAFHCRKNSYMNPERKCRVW
Protocol: Inhibitory activity against enkephalinase
A preparation of enkephalinase was made by homogenizing corpus striatum of rat brain and by partial purification of the brain homogenate according to the method of Gorenstein et al (see: the "Life Science" vol. 25, 2065~2070 (1979)).
A test compound as identified in Table 1 below was dissolved in a mixture of Tris-hydrochloride buffered solution (pH 7.7) and an aqueous 1% Triton×100 (an active surfactant) to such a concentration that the added quantity of the test compound amounted to one-tenth of the volume of said mixture. To the solution of the test compound so prepared was added the enkephalinase, followed by incubation for 5 minutes at ambient temperature and the resulting mixture was admixed with methionine-enkephaline as the substrate. The reaction mixture so prepared was incubated for 1 hour at 37° C. and then subjected to a high-performance liquid chromatography in such a manner that the Tyr-Gly-Gly (a fragment of the methionine-enkephaline) formed by the enzymatic degradation of the methionine-enkephaline was isolated and the quantity of Tyr-Gly-Gly was determined by an electro-chemical detector. In this way, IC50 value of the test compound, namely, the dose of the test compound required for 50% inhibition of the enkephalinase was measured.

[2] = Analgesic activity by the acetic acid-writhing method; assay type: in vivo, mouse (ddy-strain); conditions: mice, *P < 0.05, **P < 0.01
Protocol: Analgesic activity of test compound as estimated according to the acetic acid-writhing method
Mice of ddy-strain (body weight 20 to 25 grams) were employed as the test animal. A suspension of the compound under test was subcutaneously injected in such a manner that said suspension as injected into each mouse provides the dosage of 30 mg/kg or 300 mg/kg of the test compound. 30 Minutes after the administration, an aqueous solution of 0.6% of acetic acid was injected intraperitoneally into the mice at a volume of 0.1 ml per 10 g of the body weight. 5 Minutes after the injection of the aqueous acetic acid, the estimation was commenced to count the number of the writhing reaction of the treated mice (the motions such as abdominal constrictions and extensions of the treated mice as induced by the injection of acetic acid) which took place for the subsequent 15 minutes.
The rate (%) of suppression of the writhing reaction by the test compound was evaluated according to the following equation: [formula]

[3] = Effect of enhancing the analgesia by DAME, tail-flick latency method; assay type: in vivo, rat; conditions: rats; for Enhancement in the analgesia by DAME: DAME 10 μg + test compound 30 μg relative to DAME 10 μg; for M.P.E. DAME 10 μg + Test Compound 30 μg: n = 3 - 4, **P < 0.01; for M.P.E. Test compound 30 μg: test compound 30 μg alone, n = 3 - 4
Protocol: Effect of enhancing the analgesia by [D-ala^2,met^5 ]enkephaline (abbreviated as DAME)
A known analgesic compound, DAME and the particular compound under test of this invention were administered into the brain of the test rats by puncture of cerebroventride.
Thus, the test compound was administered into the brain of the rats using a metal cannula of 400 μm in external diameter which had been inserted into the ventriculus lateralis cerebri in a brain region of 3.2 mm anterior from the bregma, 0 mm from the central line and 0.7 mm in depth, of the brain. [see "L. J. Pellegrino and A. J. Cushman; A Stereotaxic Atras of the Rat Brain. Appleton-Century-Crofts, Division of Meredith Publishing Co., New York, (1967)"]. The test for the estimation was commenced at such a time after 48 hours or more later than the end of the surgical operation when the test rats were deemed as having recovered from the damages induced by the surgical operation. Analgesia tests were conducted using the rats having been closely restrained in a wire mesh cage, according to the tail-flick latency method (see: Hachisu et al., Life Sciences, 30, 1739-1746 (1982)). Analgesic activity was evaluated in term of the value of percentage of increase in the tail-flick latency time of the test rats receiving the test compound, as compared with the control rats receiving no test compound. The power of the radiant heat source was adjusted to give a tail-flick latency value (as the control value) of about 2 seconds for the rats before the administration of the test compound.
The cut-off of 7 seconds was used in order to prevent the tail tissues from being damaged by the heat. The maximal percent effect (M.P.E) of the tail-flick latency test was calculated according to the following equation: [formula]

[4] = into the brain (cerebroventricle)

- IC50 [1]: > 300 µM
Compound: CC(SC(=O)c1ccccc1)C(=O)N[C@H](Cc1ccccc1)[C@H](O)C(=O)O (stereo partly drawn) [(2S,3R)-N--(BzSCH(Me)CO)--AHPA, (2S,3R)-3-[N-(2-benzoylthiopropionyl)]amino-2-hydroxy-4-phenylbutanoic acid]

- IC50 [1]: 3 µM
Compound: O=C(CS)N[C@H](Cc1ccccc1)[C@H](O)C(=O)O [(2S,3R)-N--(HSCH2 CO)--AHPA, (2S,3R)-3-[N-(mercaptoacetyl)]amino-2-hydroxy-4-phenylbutanoic acid]
- Rate of suppression (%) (average value ± S.E.) ([2]; 30 mg/kg subcutaneous): 12.5 ± 14.7%
- Rate of suppression (%) (average value ± S.E.) ([2]; 300 mg/kg subcutaneous): 36.5 ± 10.5%

- IC50 [1]: 40 µM
Compound: N[C@@H](CS)C(=O)N[C@H](Cc1ccccc1)[C@H](O)C(=O)O [(2S,3R)-N--(L-Cys)--AHPA, (2S,3R)-3-(N-L-Cysteinyl)amino-2-hydroxy-4-phenylbutanoic acid]
- Rate of suppression (%) (average value ± S.E.) ([2]; 30 mg/kg subcutaneous): 56.5 ± 9.9%
- Rate of suppression (%) (average value ± S.E.) ([2]; 300 mg/kg subcutaneous): 47.9 ± 11.9%
- Enhancement in the analgesia by DAME [3]: 604.2
- M.P.E. DAME 10 μg + Test Compound 30 μg [3, 4]: 87.0 ± 13.0%
- M.P.E. Test compound 30 μg [3, 4]: 10.0 ± 5.2%

- IC50 [1]: 300 µM
Compound: CC(=O)SCC(=O)N[C@@H](Cc1ccccc1)[C@H](O)C(=O)O [(2S,3S)-N--(AcSCH2 CO)--AHPA, (2S,3S)-3-[N-(acetylthioacetyl)]amino-2-hydroxy-4-phenylbutanoic acid]

- IC50 [1]: 20 µM
Compound: O=C(CS)N[C@@H](Cc1ccccc1)[C@H](O)C(=O)O [(2S,3S)-N--(HSCH2 CO)--AHPA, (2S,3S)-3-[N-(mercaptoacetyl)]amino-2-hydroxy-4-phenylbutanoic acid]

More lines, now with the values behind:

Compound: N[C@H](Cc1ccccc1)[C@H](O)C(=O)O [(2S,3R)-AHPA, 3-amino-2-hydroxy-4-phenylbutanoic acid, reference compound]
- IC50 [1]: 14000 µM

Compound: CC(=O)SCC(=O)N[C@H](Cc1ccccc1)[C@H](O)C(=O)O [(2S,3R)-N--(AcSCH2 CO)--AHPA, (2S,3R)-3-[N-(acetylthioacetyl)]amino-2-hydroxy-4-phenylbutanoic acid]
- Rate of suppression (%) (average value ± S.E.) ([2]; 30 mg/kg subcutaneous): 33.7 ± 13.5%
- Rate of suppression (%) (average value ± S.E.) ([2]; 300 mg/kg subcutaneous): 33.3 ± 13.4%
- Enhancement in the analgesia by DAME [3]: 617.2
- M.P.E. DAME 10 μg + Test Compound 30 μg [3, 4]: 100 ± 0%
- M.P.E. Test compound 30 μg [3, 4]: 13.1 ± 6.0%
- IC50 [1]: 50 µM

Compound: CC(=O)SCC(=O)N[C@H](Cc1ccccc1)[C@H](O)C(=O)NCC(=O)O [(2S,3R)-N--(AcSCH2 CO)--AHPA--Gly, N-{(2S,3R)-3-[N-(acetylthioacetyl)]amino-2-hydroxy-4-phenylbutanoyl}glycine]
- IC50 [1]: > 300 µM

Compound: CC(=O)SCC(=O)N[C@H](Cc1ccccc1)[C@H](O)C(=O)N[C@@H](CC(C)C)C(=O)O [(2S,3R)-N--(AcSCH2CO)--AHPA--L-Leu, N-{(2S,3R)-3-[N-(acetylthioacetyl)]amino-2-hydroxy-4-phenylbutanoyl}-L-leucine]
- IC50 [1]: > 300 µM

Compound: O=C(CCSC(=O)c1ccccc1)N[C@H](Cc1ccccc1)[C@H](O)C(=O)O [(2S,3R)-N--(BzSCH2 CH2 CO)--AHPA, (2S,3R)-3-[N-(3-benzoylthiopropionyl)]amino-2-hydroxy-4-phenylbutanoic acid]
- IC50 [1]: > 300 µM

Compound: [D-ala^2,met^5 ]enkephaline [DAME, reference compound]
- M.P.E. DAME 10 μg ([3]; DAME 10 μg alone, into the brain (cerebroventricle), n = 3 - 4, *P < 0.05): 16.2 ± 3.9% and 14.4 ± 4.2%
